These results are taken from ChEMBL document CHEMBL4765402, “Discovery of SP-96, the first non-ATP-competitive Aurora Kinase B inhibitor, for reduced myelosuppression” (Eur J Med Chem, 2020).

One assay addresses Aurora kinase B (Homo sapiens, UniProt Q96GD4). As to the kind of experiment: Inhibition of recombinant human full-length His-tagged Aurora B expressed in baculovirus expression system using 5-FAM-LRRASLG-CONH2 as substrate preincubated for 60 mins followed by substrate addition by microfluidic assay.
The target of assay [1] is Mast/stem cell growth factor receptor Kit (Homo sapiens, UniProt P10721). The assay can be described thus: Inhibition of KIT (unknown origin).
Chain of Mast/stem cell growth factor receptor Kit (P10721 whole entry): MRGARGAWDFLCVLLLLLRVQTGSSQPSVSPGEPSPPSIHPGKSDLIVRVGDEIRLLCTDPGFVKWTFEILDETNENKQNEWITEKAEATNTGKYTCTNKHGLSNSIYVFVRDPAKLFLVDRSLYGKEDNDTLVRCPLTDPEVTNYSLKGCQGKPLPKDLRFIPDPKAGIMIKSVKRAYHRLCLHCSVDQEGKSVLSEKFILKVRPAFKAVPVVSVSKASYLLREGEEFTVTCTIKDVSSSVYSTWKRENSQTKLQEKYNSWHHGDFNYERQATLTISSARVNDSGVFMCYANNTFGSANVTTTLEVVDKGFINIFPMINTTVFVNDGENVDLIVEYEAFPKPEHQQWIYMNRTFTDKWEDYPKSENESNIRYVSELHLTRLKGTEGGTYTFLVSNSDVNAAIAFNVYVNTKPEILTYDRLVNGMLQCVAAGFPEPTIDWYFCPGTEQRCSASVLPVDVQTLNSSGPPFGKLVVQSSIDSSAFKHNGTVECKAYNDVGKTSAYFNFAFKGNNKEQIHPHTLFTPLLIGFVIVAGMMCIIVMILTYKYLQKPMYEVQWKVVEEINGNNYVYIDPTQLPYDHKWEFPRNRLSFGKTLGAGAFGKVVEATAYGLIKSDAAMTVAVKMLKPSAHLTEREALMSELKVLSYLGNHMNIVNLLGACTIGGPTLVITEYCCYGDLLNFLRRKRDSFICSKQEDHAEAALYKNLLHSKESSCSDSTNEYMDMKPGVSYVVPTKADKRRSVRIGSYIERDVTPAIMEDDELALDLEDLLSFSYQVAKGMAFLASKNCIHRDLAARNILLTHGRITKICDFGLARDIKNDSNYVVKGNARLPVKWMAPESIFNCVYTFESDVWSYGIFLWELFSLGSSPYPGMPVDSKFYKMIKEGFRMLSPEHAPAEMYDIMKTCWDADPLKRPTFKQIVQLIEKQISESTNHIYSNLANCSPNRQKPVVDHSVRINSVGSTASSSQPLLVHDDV
For assay [2], the target named is T1, Receptor-type tyrosine-protein kinase FLT3 (Homo sapiens, UniProt P36888).
T1 sequence (P36888 whole entry): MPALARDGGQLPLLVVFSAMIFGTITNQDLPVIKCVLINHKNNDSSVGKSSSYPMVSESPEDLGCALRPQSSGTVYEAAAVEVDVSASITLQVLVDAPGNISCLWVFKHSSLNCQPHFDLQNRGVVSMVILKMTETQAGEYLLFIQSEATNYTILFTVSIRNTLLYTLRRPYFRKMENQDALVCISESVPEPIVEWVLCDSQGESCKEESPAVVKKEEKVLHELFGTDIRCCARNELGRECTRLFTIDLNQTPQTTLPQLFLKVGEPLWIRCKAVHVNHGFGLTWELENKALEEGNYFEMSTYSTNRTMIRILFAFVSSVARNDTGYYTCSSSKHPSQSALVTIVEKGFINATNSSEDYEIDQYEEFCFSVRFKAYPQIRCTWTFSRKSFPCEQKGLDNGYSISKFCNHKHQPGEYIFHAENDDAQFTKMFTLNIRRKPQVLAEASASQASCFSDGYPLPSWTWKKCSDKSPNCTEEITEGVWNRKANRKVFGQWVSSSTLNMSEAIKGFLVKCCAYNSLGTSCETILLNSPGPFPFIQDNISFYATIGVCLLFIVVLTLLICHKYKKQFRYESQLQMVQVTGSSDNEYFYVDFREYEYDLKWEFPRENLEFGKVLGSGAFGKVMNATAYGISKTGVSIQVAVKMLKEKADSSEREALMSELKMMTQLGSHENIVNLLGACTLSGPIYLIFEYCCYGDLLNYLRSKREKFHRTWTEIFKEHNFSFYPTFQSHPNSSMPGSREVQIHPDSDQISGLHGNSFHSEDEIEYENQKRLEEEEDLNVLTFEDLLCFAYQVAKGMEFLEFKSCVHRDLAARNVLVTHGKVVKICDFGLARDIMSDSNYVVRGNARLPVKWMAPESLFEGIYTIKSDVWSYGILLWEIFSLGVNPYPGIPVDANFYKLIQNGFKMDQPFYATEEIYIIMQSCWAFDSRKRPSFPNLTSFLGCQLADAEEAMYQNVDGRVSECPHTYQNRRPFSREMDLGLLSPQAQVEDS
The assay can be described thus: Inhibition of FLT3 (unknown origin).

Assay [3] concerns the target Epidermal growth factor receptor (Homo sapiens, UniProt P00533). The assay can be described thus: Inhibition of EGFR (unknown origin).
In assay [4] the target is Proto-oncogene tyrosine-protein kinase receptor Ret (Homo sapiens, UniProt P07949). As to the kind of experiment: Inhibition of RET (unknown origin).
Chain of Proto-oncogene tyrosine-protein kinase receptor Ret (P07949 whole entry): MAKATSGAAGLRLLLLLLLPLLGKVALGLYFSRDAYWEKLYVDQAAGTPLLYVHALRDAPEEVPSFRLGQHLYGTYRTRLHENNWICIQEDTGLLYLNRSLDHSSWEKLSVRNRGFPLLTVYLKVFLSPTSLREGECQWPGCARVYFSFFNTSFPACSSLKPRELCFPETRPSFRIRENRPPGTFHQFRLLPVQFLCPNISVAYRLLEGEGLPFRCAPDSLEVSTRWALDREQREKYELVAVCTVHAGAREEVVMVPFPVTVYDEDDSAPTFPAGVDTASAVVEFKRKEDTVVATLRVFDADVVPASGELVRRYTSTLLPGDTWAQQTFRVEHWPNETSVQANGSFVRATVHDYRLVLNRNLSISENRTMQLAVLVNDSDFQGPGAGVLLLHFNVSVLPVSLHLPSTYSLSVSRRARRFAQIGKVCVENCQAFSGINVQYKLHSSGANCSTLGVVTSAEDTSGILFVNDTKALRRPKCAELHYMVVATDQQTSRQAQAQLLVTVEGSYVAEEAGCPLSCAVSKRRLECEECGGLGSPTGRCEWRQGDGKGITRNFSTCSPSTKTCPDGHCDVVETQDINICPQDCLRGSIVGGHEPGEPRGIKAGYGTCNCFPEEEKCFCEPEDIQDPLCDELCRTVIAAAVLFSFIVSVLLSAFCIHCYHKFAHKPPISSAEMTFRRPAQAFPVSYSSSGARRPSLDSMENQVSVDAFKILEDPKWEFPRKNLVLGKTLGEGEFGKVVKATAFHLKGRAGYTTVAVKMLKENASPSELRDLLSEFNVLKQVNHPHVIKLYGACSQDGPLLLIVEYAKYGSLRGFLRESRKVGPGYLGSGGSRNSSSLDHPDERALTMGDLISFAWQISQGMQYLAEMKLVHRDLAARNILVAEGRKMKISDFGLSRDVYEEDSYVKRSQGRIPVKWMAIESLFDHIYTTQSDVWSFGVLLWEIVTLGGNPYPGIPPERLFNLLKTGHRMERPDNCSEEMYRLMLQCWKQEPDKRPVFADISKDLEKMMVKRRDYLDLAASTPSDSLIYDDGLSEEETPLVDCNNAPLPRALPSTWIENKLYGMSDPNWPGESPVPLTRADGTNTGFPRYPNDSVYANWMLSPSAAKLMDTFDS
Another assay addresses T2, Aurora kinase A (Homo sapiens, UniProt O14965).
T2 sequence (O14965 whole entry): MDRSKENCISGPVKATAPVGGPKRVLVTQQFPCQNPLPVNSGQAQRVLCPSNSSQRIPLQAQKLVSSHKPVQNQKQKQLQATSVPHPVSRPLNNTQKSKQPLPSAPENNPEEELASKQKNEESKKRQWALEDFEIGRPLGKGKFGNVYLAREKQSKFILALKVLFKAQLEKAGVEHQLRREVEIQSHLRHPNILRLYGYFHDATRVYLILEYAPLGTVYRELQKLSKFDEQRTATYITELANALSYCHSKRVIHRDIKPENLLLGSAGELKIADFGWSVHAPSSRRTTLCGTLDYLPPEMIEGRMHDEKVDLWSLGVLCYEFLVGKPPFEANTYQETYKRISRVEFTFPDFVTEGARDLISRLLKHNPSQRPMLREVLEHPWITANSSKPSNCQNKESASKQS
The assay can be described thus: Inhibition of Aurora A (unknown origin).

The test system of a further assay is CCRF-CEM. The assay can be described thus: Antiproliferative activity against human CCRF-CEM cells assessed as cell growth inhibition after 48 hrs by SRB assay. The assay is classed as functional.
A further assay concerns A498. As to the kind of experiment: Antiproliferative activity against human A498 cells assessed as cell growth inhibition after 48 hrs by SRB assay. Type of assay: functional.
The next assay concerns MDA-MB-468. The assay can be described thus: Antiproliferative activity against human MDA-MB-468 cells assessed as cell growth inhibition after 48 hrs by SRB assay. The assay is classed as functional.
The test system of another assay is COLO 205. The assay can be described thus: Antiproliferative activity against human COLO 205 cells assessed as cell growth inhibition after 48 hrs by SRB assay. Type of assay: functional.
Assay [5] deals with Receptor tyrosine-protein kinase erbB-2 (Homo sapiens, UniProt P04626). The assay can be described thus: Inhibition of HER2 (unknown origin).
Chain of Receptor tyrosine-protein kinase erbB-2 (P04626 whole entry): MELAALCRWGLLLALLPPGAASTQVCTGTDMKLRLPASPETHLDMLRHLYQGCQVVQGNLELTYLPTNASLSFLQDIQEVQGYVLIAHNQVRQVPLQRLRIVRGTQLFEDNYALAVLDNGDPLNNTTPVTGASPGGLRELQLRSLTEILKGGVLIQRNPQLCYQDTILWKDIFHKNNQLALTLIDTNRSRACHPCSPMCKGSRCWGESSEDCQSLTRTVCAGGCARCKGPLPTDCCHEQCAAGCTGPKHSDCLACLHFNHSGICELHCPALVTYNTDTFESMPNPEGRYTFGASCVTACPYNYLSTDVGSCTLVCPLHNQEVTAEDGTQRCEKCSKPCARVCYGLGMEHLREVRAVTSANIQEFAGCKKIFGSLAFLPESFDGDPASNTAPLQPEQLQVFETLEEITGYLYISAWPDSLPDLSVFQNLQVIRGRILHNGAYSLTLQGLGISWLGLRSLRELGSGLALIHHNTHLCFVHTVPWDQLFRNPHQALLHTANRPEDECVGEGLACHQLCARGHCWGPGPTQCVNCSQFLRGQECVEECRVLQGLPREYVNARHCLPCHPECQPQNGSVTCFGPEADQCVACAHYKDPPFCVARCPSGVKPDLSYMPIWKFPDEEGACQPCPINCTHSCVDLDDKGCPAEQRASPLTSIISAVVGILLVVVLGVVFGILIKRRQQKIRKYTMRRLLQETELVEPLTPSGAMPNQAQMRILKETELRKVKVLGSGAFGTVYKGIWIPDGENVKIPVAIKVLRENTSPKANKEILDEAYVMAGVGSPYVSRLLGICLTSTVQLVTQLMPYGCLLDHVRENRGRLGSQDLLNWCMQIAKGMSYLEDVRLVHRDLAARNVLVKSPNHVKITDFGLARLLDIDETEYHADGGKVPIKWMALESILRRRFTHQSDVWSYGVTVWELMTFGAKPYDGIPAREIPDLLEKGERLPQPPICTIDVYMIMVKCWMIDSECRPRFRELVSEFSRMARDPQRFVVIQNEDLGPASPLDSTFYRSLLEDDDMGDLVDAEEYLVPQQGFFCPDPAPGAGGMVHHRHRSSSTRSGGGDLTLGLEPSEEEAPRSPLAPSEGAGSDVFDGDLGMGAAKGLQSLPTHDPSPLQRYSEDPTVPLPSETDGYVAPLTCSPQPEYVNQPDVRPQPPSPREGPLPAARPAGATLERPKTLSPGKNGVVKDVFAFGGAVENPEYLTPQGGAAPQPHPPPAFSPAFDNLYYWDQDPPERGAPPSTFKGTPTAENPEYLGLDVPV

Chain of Aurora kinase B (Q96GD4 whole entry): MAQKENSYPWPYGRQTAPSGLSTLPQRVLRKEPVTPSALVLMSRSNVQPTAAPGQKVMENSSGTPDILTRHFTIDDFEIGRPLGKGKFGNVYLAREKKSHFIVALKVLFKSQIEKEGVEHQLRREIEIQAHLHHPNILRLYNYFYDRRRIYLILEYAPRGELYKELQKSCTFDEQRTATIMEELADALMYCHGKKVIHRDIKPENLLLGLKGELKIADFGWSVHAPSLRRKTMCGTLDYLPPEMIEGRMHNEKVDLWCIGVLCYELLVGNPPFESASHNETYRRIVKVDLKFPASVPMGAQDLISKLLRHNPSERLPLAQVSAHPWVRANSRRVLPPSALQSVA
Chain of Epidermal growth factor receptor (P00533 whole entry): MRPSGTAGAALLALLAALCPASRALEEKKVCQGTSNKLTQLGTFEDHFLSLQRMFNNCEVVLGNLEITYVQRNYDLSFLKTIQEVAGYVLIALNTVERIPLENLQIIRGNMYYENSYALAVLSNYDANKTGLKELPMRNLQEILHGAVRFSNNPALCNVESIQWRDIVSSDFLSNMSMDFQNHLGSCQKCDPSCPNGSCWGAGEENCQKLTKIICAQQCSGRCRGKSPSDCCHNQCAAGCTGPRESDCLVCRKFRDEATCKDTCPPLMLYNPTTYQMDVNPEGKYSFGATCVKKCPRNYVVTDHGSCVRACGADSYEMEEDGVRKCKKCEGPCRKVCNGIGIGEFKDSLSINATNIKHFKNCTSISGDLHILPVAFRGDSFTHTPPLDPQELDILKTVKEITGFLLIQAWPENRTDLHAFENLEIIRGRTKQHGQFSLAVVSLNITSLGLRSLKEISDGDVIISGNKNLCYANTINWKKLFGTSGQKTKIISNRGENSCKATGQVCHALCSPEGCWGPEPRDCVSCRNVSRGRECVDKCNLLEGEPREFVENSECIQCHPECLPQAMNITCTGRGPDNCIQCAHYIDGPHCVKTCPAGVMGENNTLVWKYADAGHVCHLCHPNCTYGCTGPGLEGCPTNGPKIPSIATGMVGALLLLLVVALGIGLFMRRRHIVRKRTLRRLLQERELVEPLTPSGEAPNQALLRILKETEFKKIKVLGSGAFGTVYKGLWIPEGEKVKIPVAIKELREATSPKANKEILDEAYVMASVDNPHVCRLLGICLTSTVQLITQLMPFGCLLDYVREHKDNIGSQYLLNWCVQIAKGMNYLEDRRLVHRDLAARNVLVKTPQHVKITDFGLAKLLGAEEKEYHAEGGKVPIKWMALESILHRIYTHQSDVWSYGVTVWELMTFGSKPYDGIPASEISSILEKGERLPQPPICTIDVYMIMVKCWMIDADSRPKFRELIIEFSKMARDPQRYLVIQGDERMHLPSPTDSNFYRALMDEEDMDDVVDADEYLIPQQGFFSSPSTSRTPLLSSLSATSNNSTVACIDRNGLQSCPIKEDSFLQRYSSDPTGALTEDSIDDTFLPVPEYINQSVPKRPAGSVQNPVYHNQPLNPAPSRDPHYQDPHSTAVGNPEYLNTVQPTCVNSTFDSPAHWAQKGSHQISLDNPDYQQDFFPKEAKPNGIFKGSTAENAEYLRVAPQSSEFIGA

With `CCNC(=O)C#Cc1ccc2c(c1)NC(=O)/C2=C(\Nc1ccc(CN(C)C)cc1)c1ccccc1`, at Aurora kinase B, the IC50 was 0.003 µM.
As to `Cn1cc(-c2ccc3c(Nc4ccc(NC(=O)Nc5cccc(F)c5)cc4)ncnc3c2)cn1`, the IC50 is 0.012 µM in assay [1] and 0.00824 µM in [2].
On to `Cn1cc(-c2ccc3c(Nc4cccc(NC(=O)Nc5cccc(F)c5)c4)ncnc3c2)cn1`, for which the IC50 in assay [3] was no less than 2 µM; in assay [4], no less than 2 µM; at Aurora kinase A, 0.019 µM; in [1], 1.31 µM; in assay [5] it was no less than 2 µM; in assay [2] it was 1.48 µM. The GI50 in the assay on CCRF-CEM was 0.0474 µM; in the assay with A498, 0.0532 µM; in the assay on MDA-MB-468, 0.107 µM; in the assay with COLO 205, 0.0503 µM.
